Data from patent US20100261706A1, “SUBSTITUTED TETRACYCLIC 1H-INDENO [1,2-B]PYRIDINE-2(5H)-ONE ANALOGS THEREOF AND USES THEREOF” (INOTEK PHARMACEUTICALS CORPORATION, priority 2008, published 2010).
Structures can show the parent of a compound that is named as a salt.

What was measured:
[1] = target: T1, PARP-1 enzyme (Homo sapiens, UniProt P09874); assay: Purified PARP-1 enzyme inhibition assay (Trevigen kit, 96 well ELISA plates); assay type: biochemical
T1 construct: purchased Trevigen, Gaithersburg, Md
Procedure: Effect of Tetracyclic 1H-indeno[1,2-b]pyridine-2(5H)-one analogs on PARP Activity in purified PARP-1 enzyme assay
The potency of inhibition on purified PARP-1 enzyme was subsequently determined for selected compounds, and the potency was compared with INO-1001. The assay was performed in 96 well ELISA plates according to instructions provided with a commercially available PARP-1 inhibition assay kit (Trevigen, Gaithersburg, Md.). Briefly, wells were coated with 1 mg/ml histone (50 μl/well) at 4° C. overnight. Plates were then washed four times with PBS and then blocked by adding 50 μl Strep-Diluent (supplied with the kit). After incubation (1 h, 25° C.), the plates were washed four times with PBS. Appropriate dilutions of compound was combined with 2×PARP cocktail (1.95 mM NAD^+, 50 μM biotinylated NAD^+ in 50 mM TRIS pH 8.0, 25 mM MgCl2) and high specific activity PARP enzyme (both were supplied with the kit) in a volume of 50 μl. The reaction was allowed to proceed for 30 min at room temperature. After 4 washes in PBS, incorporated biotin was detected by peroxidase-conjugated streptavidin (1:500 dilution) and TACS Sapphire substrate. EC50 and IC50 values were determined from a dose-response curve.

[2] = target: T2, PARP (Mus musculus, UniProt P11103); assay: PARP activity in cultured macrophages, whole-cell based assay (3H-NAD+ incorporation after hydrogen peroxide); conditions: murine RAW macrophages, 1 hour pretreatment, hydrogen peroxide 0.5 mM
T2 construct: PARP Activity in Cultured Macrophages, Using a Whole-Cell Based Assay; endogenous in cells; host or cells: murine RAW macrophages (ATCC)
Procedure: Effect of Tetracyclic 1H-indeno[1,2-b]pyridine-2(511)-one Analogs on PARP Activity in Cultured Macrophages, Using a Whole-Cell Based Assay
The murine RAW macrophages (ATCC, American Type Culture Collection, Manassas, Va.) were grown in […] (Invitrogen Life Technologies; Carlsbad, Calif.) medium supplemented with 10% heat-inactivated FBS, 2 mM L-glutamine, and 100 U/ml of penicillin and streptomycin. Cells, between passages 5 and 15, were seeded at a density of 250,000 cells/well in 12 well plates and allowed to grow 48 hours before use. Growth medium was changed on the day of use. Cells were treated with a tetracyclic 1H-indeno[1,2-b]pyridine-2(5H)-one analog diluted in a growth medium supplemented with 10% fetal bovine serum (FBS) for 1 hour prior to the addition of hydrogen peroxide (0.5 mM) for a further 25 minutes. For the measurement of PARP activity, media was removed and replaced with 0.5 ml of the assay buffer (56 mM HEPES-pH 7.5, 28 mM KCl, 28 mM NaCl, 2 mM MgCl2, 0.01% digitonin, and 0.5 μCi/ml of ^3H-NAD^+) for 20 minutes. After aspirating the assay buffer, cells were lysed and transferred to eppendorf tubes containing 250 μl of 50% ice-cold trichloroacetic acid (TCA), which were then placed at 4° C. for 4 hours. Samples were centrifuged at 10,000 g for 10 minutes and supernatant removed. The pellets were washed twice with 500 μl of ice-cold 5% w/v TCA. The pellets were then solubilized in 250 μl of NaOH (0.1 M) containing 2% SDS overnight at 37° C. and the PARP activity was then determined by measuring the radioactivity incorporated using a Wallac scintillation counter. The solubilized protein (250 μl) was mixed with 5 ml of scintillation fluid (ScintiSafe Plus, Fisher Scientific) before being counted for 3 minutes. EC50 values were determined from a dose-response curve.

T1 sequence (P09874 whole entry): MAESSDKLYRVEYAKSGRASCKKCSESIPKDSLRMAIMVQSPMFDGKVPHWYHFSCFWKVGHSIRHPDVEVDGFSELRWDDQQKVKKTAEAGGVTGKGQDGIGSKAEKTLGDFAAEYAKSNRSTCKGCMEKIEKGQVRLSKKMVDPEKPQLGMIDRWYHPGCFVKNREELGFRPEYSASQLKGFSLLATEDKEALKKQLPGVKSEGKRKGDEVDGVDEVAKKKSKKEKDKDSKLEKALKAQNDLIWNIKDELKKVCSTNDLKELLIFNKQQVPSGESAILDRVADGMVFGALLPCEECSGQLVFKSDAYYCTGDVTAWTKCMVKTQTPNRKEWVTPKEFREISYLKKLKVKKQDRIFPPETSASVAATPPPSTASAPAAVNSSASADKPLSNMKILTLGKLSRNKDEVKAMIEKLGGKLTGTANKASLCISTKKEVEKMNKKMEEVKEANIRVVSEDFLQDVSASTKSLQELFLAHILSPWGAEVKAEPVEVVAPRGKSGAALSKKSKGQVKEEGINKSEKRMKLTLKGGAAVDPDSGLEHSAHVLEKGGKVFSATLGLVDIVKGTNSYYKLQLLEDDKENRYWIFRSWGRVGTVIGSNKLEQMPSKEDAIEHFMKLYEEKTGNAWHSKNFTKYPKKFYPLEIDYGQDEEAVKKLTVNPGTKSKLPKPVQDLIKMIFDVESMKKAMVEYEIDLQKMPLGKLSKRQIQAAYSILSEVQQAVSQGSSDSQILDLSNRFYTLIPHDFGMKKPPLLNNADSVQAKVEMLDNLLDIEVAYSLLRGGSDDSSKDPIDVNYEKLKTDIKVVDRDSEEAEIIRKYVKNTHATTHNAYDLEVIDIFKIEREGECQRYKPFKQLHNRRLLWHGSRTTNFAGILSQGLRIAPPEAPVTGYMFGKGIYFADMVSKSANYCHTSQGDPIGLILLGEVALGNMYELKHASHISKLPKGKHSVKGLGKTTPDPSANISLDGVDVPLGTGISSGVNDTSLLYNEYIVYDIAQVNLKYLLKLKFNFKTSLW
T2 sequence (P11103 whole entry): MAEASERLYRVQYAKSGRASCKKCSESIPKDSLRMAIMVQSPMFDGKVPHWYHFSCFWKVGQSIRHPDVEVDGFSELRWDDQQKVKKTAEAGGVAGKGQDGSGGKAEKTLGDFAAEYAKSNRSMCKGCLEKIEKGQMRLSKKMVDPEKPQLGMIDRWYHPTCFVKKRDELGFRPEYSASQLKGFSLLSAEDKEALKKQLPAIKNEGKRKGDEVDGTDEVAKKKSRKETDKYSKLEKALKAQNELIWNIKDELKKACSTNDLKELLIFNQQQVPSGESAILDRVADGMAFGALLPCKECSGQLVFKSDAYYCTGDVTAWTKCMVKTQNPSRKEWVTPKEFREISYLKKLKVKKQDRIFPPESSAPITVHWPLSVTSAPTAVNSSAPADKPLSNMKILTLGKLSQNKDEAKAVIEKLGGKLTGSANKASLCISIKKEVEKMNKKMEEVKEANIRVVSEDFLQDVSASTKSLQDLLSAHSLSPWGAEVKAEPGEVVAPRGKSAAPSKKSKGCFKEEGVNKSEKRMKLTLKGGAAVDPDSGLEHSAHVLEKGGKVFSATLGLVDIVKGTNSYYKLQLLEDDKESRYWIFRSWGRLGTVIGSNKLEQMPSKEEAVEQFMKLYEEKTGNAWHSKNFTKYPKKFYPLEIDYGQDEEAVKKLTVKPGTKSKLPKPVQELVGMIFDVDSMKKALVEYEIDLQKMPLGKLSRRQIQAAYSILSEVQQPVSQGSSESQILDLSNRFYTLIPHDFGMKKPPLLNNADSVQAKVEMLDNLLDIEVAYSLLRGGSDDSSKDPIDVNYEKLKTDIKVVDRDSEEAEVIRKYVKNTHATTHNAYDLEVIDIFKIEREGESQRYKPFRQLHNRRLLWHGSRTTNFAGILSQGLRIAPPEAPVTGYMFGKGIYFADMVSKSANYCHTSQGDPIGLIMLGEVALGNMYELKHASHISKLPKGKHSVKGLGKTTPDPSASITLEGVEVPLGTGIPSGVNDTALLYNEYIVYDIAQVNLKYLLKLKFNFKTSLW

IC50 [1]	EC50 [2]	SMILES
3.83 nM	11.3 nM	O=c1[nH]c2c(c3c1CCCC3)Cc1c(CN3CCC(O)CC3)cccc1-2 [Example 1, 10-((4-hydroxypiperidin-1-yl)methyl)-3,4,6,11-tetrahydro-1H-indeno[1,2-c]isoquinolin-5(2H)-one]
5.15 nM	1.52 nM	O=c1[nH]c2c(c3c1CCCC3)Cc1c(CN3CCCCC3)cccc1-2 [Example 2, 10-(piperidin-1-ylmethyl)-3,4,6,11-tetrahydro-1H-indeno[1,2-c]isoquinolin-5(2H)-one]
11.3 nM		O=c1[nH]c2c(c3c1CCCC3)Cc1c(CN3CCC(O)CC3)cccc1-2 [Example 3, 10-((4-hydroxypiperidin-1-yl)methyl)-3,4,6,11-tetrahydro-1H-indeno[1,2-c]isoquinolin-5(2H)-one hydrochloride]
93.9 nM	12.7 nM	CCOC1CCN(Cc2cccc3c2Cc2c-3[nH]c(=O)c3c2CCCC3)CC1 [Example 9, 10-((4-ethoxypiperidin-1-yl)methyl)-3,4,6,11-tetrahydro-1H-indeno[1,2-c]isoquinolin-5(2H)-one]
5.2 nM	4.1 nM	CC1CCN(Cc2cccc3c2Cc2c-3[nH]c(=O)c3c2CCCC3)CC1 [Example 20, 10-((4-methylpiperidin-1-yl)methyl)-3,4,6,11-tetrahydro-1H-indeno[1,2-c]isoquinolin-5(2H)-one mesylate]
12.7 nM	20.9 nM	O=c1[nH]c2c(c3c1CCCC3)Cc1c(CN3CCC(N4CCCC4)CC3)cccc1-2 [Example 23, 10-((4-(pyrrolidin-1-yl)piperidin-1-yl)methyl)-3,4,6,11-tetrahydro-1H-indeno[1,2-c]isoquinolin-5(2H)-one]
23.1 nM	100 nM	C[C@@H]1CN(c2cccc3c2Cc2c-3[nH]c(=O)c3c2CCCC3)C[C@H](C)O1 [Example 32, 10-(2,6-dimethylmorpholino)-3,4,6,11-tetrahydro-1H-indeno[1,2-c]isoquinolin-5(2H)-one]
6.3 nM	45 nM	CCCN1CCN(c2cccc3c2Cc2c-3[nH]c(=O)c3c2CCCC3)CC1 [Example 41, 10-(4-propylpiperazin-1-yl)-3,4,6,11-tetrahydro-1H-indeno[1,2-c]isoquinolin-5(2H)-one]
8.1 nM	9 nM	COCCN1CCN(c2cccc3c2Cc2c-3[nH]c(=O)c3c2CCCC3)CC1 [Example 43, 10-(4-(2-methoxyethyl)piperazin-1-yl)-3,4,6,11-tetrahydro-1H-indeno[1,2-c]isoquinolin-5(2H)-one]
55.7 nM	22.7 nM	COCCN1CCN(c2cccc3c2Cc2c-3[nH]c(=O)c3cccnc23)CC1 [Example 49, 10-(4-(2-methoxyethyl)piperazin-1-yl)-6,11-dihydro-5H-indeno[1,2-h][1,6]naphthyridin-5-one]
25.5 nM	6.1 nM	CCCCN1CCN(c2cccc3c2Cc2c-3[nH]c(=O)c3cccnc23)CC1 [Example 58, 10-(4-butylpiperazin-1-yl)-6,11-dihydro-5H-indeno[1,2-h][1,6]naphthyridin-5-one]
54.7 nM	18.4 nM	O=c1[nH]c2c(c3c1CCCC3)Cc1c(CN3CC=CCC3)cccc1-2 [Example 69, 10-((5,6-dihydropyridin-1(2H)-yl)methyl)-3,4,6,11-tetrahydro-1H-indeno[1,2-c]isoquinolin-5(2H)-one]

Continued, molecule first:

SMILES	IC50 [1]	EC50 [2]
O=c1[nH]c2c(c3c1CCCC3)Cc1c(CNC3CCCC3)cccc1-2 [Example 26, 10-((cyclopentylamino)methyl)-3,4,6,11-tetrahydro-1H-indeno[1,2-c]isoquinolin-5(2H)-one]	3.4 nM	5 nM
COCCNCc1ccc2c(c1)Cc1c-2[nH]c(=O)c2c1CCCC2 [Example 36, 9-((2-methoxyethylamino)methyl)-3,4,6,11-tetrahydro-1H-indeno[1,2-c]isoquinolin-5(2H)-one]	8.9 nM	50 nM
O=c1[nH]c2c(c3c1CCCC3)Cc1cc(CNCCN3CCOCC3)ccc1-2 [Example 45, 9-((2-morpholinoethylamino)methyl)-3,4,6,11-tetrahydro-1H-indeno[1,2-c]isoquinolin-5(2H)-one]	5.5 nM	25 nM
O=c1[nH]c2c(c3ccsc13)Cc1c(CNC3CCCC3)cccc1-2 [Example 48, 9-((cyclopentylamino)methyl)-5,10-dihydro-4H-indeno[1,2-b]thieno[3,2-d]pyridin-4-one]	27 nM	10 nM
O=c1[nH]c2c(c3c1CCCC3)Cc1c(CNC3(CO)CCCC3)cccc1-2 [Example 50, 10-((1-(hydroxymethyl)cyclopentylamino)methyl)-3,4,6,11-tetrahydro-1H-indeno[1,2-c]isoquinolin-5(2H)-one]	6.3 nM	5 nM
CC(C)(O)C(=O)Nc1cccc2c1Cc1c-2[nH]c(=O)c2c1CCCC2 [Example 51, 2-hydroxy-2-methyl-N-(5-oxo-2,3,4,5,6,11-hexahydro-1H-indeno[1,2-c]isoquinolin-10-yl)propanamide]	> 250 nM	59 nM
CSCCC(=O)Nc1cccc2c1Cc1c-2[nH]c(=O)c2c1CCCC2 [Example 52, 3-(methylthio)-N-(5-oxo-2,3,4,5,6,11-hexahydro-1H-indeno[1,2-c]isoquinolin-10-yl)propanamide]	73.6 nM	55 nM
C[S+]([O-])CCC(=O)Nc1cccc2c1Cc1c-2[nH]c(=O)c2c1CCCC2 (stereo not shown) [Example 53, 3-(methylsulfinyl)-N-(5-oxo-2,3,4,5,6,11-hexahydro-1H-indeno[1,2-c]isoquinolin-10-yl)propanamide]	89.8 nM	6 nM
O=c1[nH]c2c(c3sccc13)Cc1c(CNC3CCCC3)cccc1-2 [Example 55, 9-((cyclopentylamino)methyl)-5,10-dihydro-4H-indeno[1,2-b]thieno[2,3-d]pyridin-4-one]	41.2 nM	34 nM
CN1CCN(c2cccc3c2Cc2c-3[nH]c(=O)c3cccnc23)CC1 [Example 56, 10-(4-methylpiperazin-1-yl)-6,11-dihydro-5H-indeno[1,2-d][1,6]naphthyridin-5-one]	19.9 nM	9 nM
CCN1CCN(c2cccc3c2Cc2c-3[nH]c(=O)c3cccnc23)CC1 [Example 59, 10-(4-ethylpiperazin-1-yl)-6,11-dihydro-5H-indeno[1,2-h][1,6]naphthyridin-5-one]	12.4 nM	2.4 nM
CC(C)N1CCN(c2cccc3c2Cc2c-3[nH]c(=O)c3cccnc23)CC1 [Example 60, 10-(4-isopropylpiperazin-1-yl)-6,11-dihydro-5,1-indeno[1,2-h][1,6]naphthyridin-5-one]	19.2 nM	37 nM
O=c1[nH]c2c(c3ncccc13)Cc1c-2cccc1N1CCN(CC2CC2)CC1 [Example 61, 10-(4-(cyclopropylmethyl)piperazin-1-yl)-6,11-dihydro-5H-indeno[1,2-h][1,6]naphthyridin-5-one]	27.9 nM	46 nM
O=c1[nH]c2c(c3ncccc13)Cc1c(CNC3CCCC3)cccc1-2 [Example 62, 10-((cyclopentylamino)methyl)-6,11-dihydro-5H-indeno[1,2-h][1,6]naphthyridin-5-one]	28.1 nM	13 nM
O=c1[nH]c2c(c3c1CCCC3)Cc1cc(CN3CCC(F)CC3)ccc1-2 [Example 66, 9-((4-fluoropiperidin-1-yl)methyl)-3,4,6,11-tetrahydro-1H-indeno[1,2-c]isoquinolin-5(2H)-one]		37.5 nM
